In patent publication US8715537B2, “Molecular precursor methods and materials for optoelectronics” (Precursor Energetics, Inc., priority 2009, dated 2014):

test: Solubility of molecular precursor in organic solvents; type: physicochemical; conditions: solvent CHCl3

Which “Solubility: CHCl3” value does the source give for Cu—(Se^tBu)3In^nBu [Example 3] here?
The value was “vs”.

With Cu—(S^tBu)3In^nBu [Example 2] as the substance, how does the “Solubility: CHCl3” value read?
The value was “vs”.

same assay, conditions: solvent THF

For Cu—(S^tBu)3In^tBu [Example 4], which “Solubility: THF” value is on record?
Its value is “ss”.

Which “Solubility: THF” value does the source give for Cu—(Se^tBu)3In^tBu [Example 7] here?
Its value is “ss”.

With Cu—(Se^tBu)3In^nBu [Example 3] as the substance, how does the “Solubility: THF” value read?
The value was “vs”.

With Cu—(S^tBu)3In^nBu [Example 2] as the substance, how does the “Solubility: THF” value read?
Its value is “vs”.

same assay, conditions: solvent benzene; 'heat'

For Cu—(S^tBu)3In^tBu [Example 4], which “Solubility: benzene” value is on record?
Its value is “ss heat”.

With Cu—(S^tBu)3In^iPr [Example 1] as the substance, how does the “Solubility: benzene” value read?
Its value is “s heat”.

With Cu—(Se^tBu)3Ga^tBu [Example 5] as the substance, how does the “Solubility: benzene” value read?
The value was “ss heat”.

With Cu—(Se^tBu)3In^tBu [Example 7] as the substance, how does the “Solubility: benzene” value read?
The value was “ss heat”.

Which “Solubility: benzene” value does the source give for Cu—(Se^tBu)3In^iPr [Example 8] here?
The value was “heat”.

For Cu—(Se^tBu)3In^nBu [Example 3], which “Solubility: benzene” value is on record?
The value was “vs”.

For Cu—(S^tBu)3In^nBu [Example 2], which “Solubility: benzene” value is on record?
The value was “vs”.

same assay, conditions: solvent diethyl ether

For Cu—(S^tBu)3In^tBu [Example 4], which “Solubility: diethyl ether” value is on record?
The value was “nil”.

With Cu—(S^tBu)3In^iPr [Example 1] as the substance, how does the “Solubility: diethyl ether” value read?
The value was “ss”.

For Cu—(Se^tBu)3Ga^tBu [Example 5], which “Solubility: diethyl ether” value is on record?
Its value is “nil”.

With Cu—(Se^tBu)3In^tBu [Example 7] as the substance, how does the “Solubility: diethyl ether” value read?
Its value is “nil”.

For Cu—(Se^tBu)3In^iPr [Example 8], which “Solubility: diethyl ether” value is on record?
Its value is “ss”.

Which “Solubility: diethyl ether” value does the source give for Cu—(Se^tBu)3In^nBu [Example 3] here?
The value was “vs”.

With Cu—(S^tBu)3In^nBu [Example 2] as the substance, how does the “Solubility: diethyl ether” value read?
Its value is “vs”.

same assay, conditions: solvent pentane

Which “Solubility: pentane” value does the source give for Cu—(S^tBu)3In^tBu [Example 4] here?
Its value is “nil”.

Which “Solubility: pentane” value does the source give for Cu—(S^tBu)3In^iPr [Example 1] here?
The value was “nil”.

With Cu—(Se^tBu)3Ga^tBu [Example 5] as the substance, how does the “Solubility: pentane” value read?
Its value is “nil”.

For Cu—(Se^tBu)3In^tBu [Example 7], which “Solubility: pentane” value is on record?
Its value is “nil”.

Which “Solubility: pentane” value does the source give for Cu—(Se^tBu)3In^iPr [Example 8] here?
Its value is “nil”.

same assay, conditions: solvent toluene; 'heat'

For Cu—(S^tBu)3In^tBu [Example 4], which “Solubility: toluene” value is on record?
Its value is “s heat”.

For Cu—(Se^tBu)3Ga^tBu [Example 5], which “Solubility: toluene” value is on record?
Its value is “s heat”.

Which “Solubility: toluene” value does the source give for Cu—(Se^tBu)3In^tBu [Example 7] here?
Its value is “heat”.

With Cu—(Se^tBu)3In^nBu [Example 3] as the substance, how does the “Solubility: toluene” value read?
Its value is “vs”.

For Cu—(S^tBu)3In^nBu [Example 2], which “Solubility: toluene” value is on record?
The value was “vs”.

test: Thermogravimetric analysis (TGA): transition of molecular precursor into material; type: physicochemical; conditions: TGA, transition of precursor into material
Method: Thermogravimetric analysis (TGA) was performed using a Q50 Thermogravimetric Analyzer (TA Instruments, New Castle, Del.). NMR data were recorded using a Varian 400 MHz spectrometer.

For Cu—(S^tBu)3In^tBu [Example 4], which “TGA transition ending (completed) temperature” value (“TGA transition ending” for short) is on record?
Its value is “about 240 °C”.

For Cu—(S^tBu)3In^iPr [Example 1], which “TGA transition ending” value is on record?
Its value is 227 °C.

And the TGA transition midpoint?
The TGA transition midpoint was 220 °C.

For Cu—(S^tBu)2(S^tBu)In^tBu [Example 9], which “TGA transition ending” value is on record?
The value was 295 °C.

And the TGA transition midpoint?
Its TGA transition midpoint is 235 °C.

For Cu—(Se^tBu)3In^sBu [Example 14], which “TGA transition ending” value is on record?
The value was 204 °C.

And the TGA transition midpoint?
Its TGA transition midpoint is 191 °C.

Which “TGA transition ending” value does the source give for Cu—(S^tBu)3Ga^iPr [Example 12] here?
Its value is 220 °C.

For Cu—(Se^tBu)3Ga^tBu [Example 5], which “TGA transition ending” value is on record?
Its value is “about 210 °C”.

With Cu—(Se^tBu)3In^tBu [Example 7] as the substance, how does the “TGA transition ending” value read?
The value was “about 192 °C”.

Which “TGA transition ending” value does the source give for Ag—(Se^tBu)3Ga^sBu [Example 27] here?
The value was “about 195 °C”.

What does the source list for Cu—(Se^tBu)3In^iPr [Example 8]?
TGA transition ending (completed) temperature: 199 °C; TGA transition midpoint: 192 °C

For Ag—(Se^tBu)3In^sBu [Example 26], which “TGA transition ending” value is on record?
The value was “about 195 °C”.

With Cu—(Se^tBu)3In^nBu [Example 3] as the substance, how does the “TGA transition ending” value read?
The value was 196 °C.

And the TGA transition midpoint?
Its TGA transition midpoint is 174 °C.

What does the source list for Cu—(S^tBu)3In^nBu [Example 2]?
TGA transition ending (completed) temperature: 248 °C; TGA transition midpoint: 235 °C

With Ag—(Se^tBu)3Ga^nBu [Example 25] as the substance, how does the “TGA transition ending” value read?
The value was “about 210 °C”.

For Ag—(Se^tBu)3In^nBu [Example 24], which “TGA transition ending” value is on record?
The value was “about 205 °C”.

With Ag—(Se^tBu)3In^iPr [Example 28] as the substance, how does the “TGA transition ending” value read?
The value was “about 205 °C”.

same assay, conditions: at about 400° C.

Which “TGA yield at 400° C.” value does the source give for Ag—(Se^tBu)3Ga^sBu [Example 27] here?
The value was 45.1 % (w/w).

With Ag—(Se^tBu)3Ga^nBu [Example 25] as the substance, how does the “TGA yield at 400° C.” value read?
Its value is 47.7 % (w/w).

For Ag—(Se^tBu)3In^nBu [Example 24], which “TGA yield at 400° C.” value is on record?
Its value is 52.5 % (w/w).

same assay, conditions: residue at end of transition

For Cu—(S^tBu)3In^tBu [Example 4], which “TGA yield for the transition” value is on record?
The value was 48.1 % (w/w).

With Cu—(S^tBu)3In^iPr [Example 1] as the substance, how does the “TGA yield for the transition” value read?
Its value is 50.4 % (w/w).

Which “TGA yield for the transition” value does the source give for Cu—(S^tBu)2(S^tBu)In^tBu [Example 9] here?
The value was 47.9 % (w/w).

With Cu—(Se^tBu)3In^sBu [Example 14] as the substance, how does the “TGA yield for the transition” value read?
Its value is 52.3 % (w/w).

With Cu—(S^tBu)3Ga^iPr [Example 12] as the substance, how does the “TGA yield for the transition” value read?
Its value is 46.0 % (w/w).

Which “TGA yield for the transition” value does the source give for Cu—(Se^tBu)3Ga^tBu [Example 5] here?
Its value is 48.3 % (w/w).

For Cu—(Se^tBu)3In^tBu [Example 7], which “TGA yield for the transition” value is on record?
Its value is 53.1 % (w/w).

For Ag—(Se^tBu)3Ga^sBu [Example 27], which “TGA yield for the transition” value is on record?
Its value is 50.4 % (w/w).

For Cu—(Se^tBu)3In^iPr [Example 8], which “TGA yield for the transition” value is on record?
Its value is 52.1 % (w/w).

Which “TGA yield for the transition” value does the source give for Ag—(Se^tBu)3In^sBu [Example 26] here?
The value was 54.9 % (w/w).

With Cu—(Se^tBu)3In^nBu [Example 3] as the substance, how does the “TGA yield for the transition” value read?
The value was 48.5 % (w/w).

Which “TGA yield for the transition” value does the source give for Cu—(S^tBu)3In^nBu [Example 2] here?
Its value is 50.4 % (w/w).

For Ag—(Se^tBu)3Ga^nBu [Example 25], which “TGA yield for the transition” value is on record?
Its value is 53.9 % (w/w).

Which “TGA yield for the transition” value does the source give for Ag—(Se^tBu)3In^nBu [Example 24] here?
Its value is 54.6 % (w/w).

With Ag—(Se^tBu)3In^iPr [Example 28] as the substance, how does the “TGA yield for the transition” value read?
The value was 56.2 % (w/w).
